Reference: US20240158446A1, “CYCLIC COMPOUND HAVING SELECTIVE INHIBITORY ACTION ON KRAS OVER HRAS AND NRAS” (CHUGAI SEIYAKU KABUSHIKI KAISHA, priority 2021, published 2024)
Like-named read-outs stand apart in the source and are kept apart here. *1 amine or outer side, *2 acyl side, *3 side chain or, on linkers, in order; H or OH if unused. Where a SMILES comes first, the peptide text is derived from it. Bridges are numbered along the chain shown (N, C = ends). [ ]: non-standard residue; d: D form. The star is where a group is joined. X39 = CC(C)CCN([C@@H](Cc1ccc(C(F)(F)F)cc1)C(=O)[*:2])[*:1]; hPhe(3-Cl-4-CF3) = N[C@@H](CCc1ccc(C(F)(F)F)c(Cl)c1)C(=O)O; NPrPhe(4-CF3) = CCCN[C@@H](Cc1ccc(C(F)(F)F)cc1)C(=O)O; NMePhe(4-CF3) = CN[C@@H](Cc1ccc(C(F)(F)F)cc1)C(=O)O; NMeGly(cPent) = CN[C@H](C(=O)O)C1CCCC1; Hyp = O=C(O)[C@@H]1C[C@@H](O)CN1; NMeD = CN[C@@H](CC(=O)O)C(=O)O; NMeL = CN[C@@H](CC(C)C)C(=O)O; Morpholide = C1CN(*)CCO1; NMeA = CN[C@@H](C)C(=O)O; Ac5c = NC1(C(=O)O)CCCC1; Aze = O=C(O)[C@@H]1CCN1; Ac4c = NC1(C(=O)O)CCC1; Sar = CNCC(=O)O

What was measured:
[1] = target: GDP-bound NRAS wild-type protein (Homo sapiens, UniProt P01111); test: Binding to NRAS by surface plasmon resonance (SPR), Single Cycle Kinetics; conditions: SPR, GDP-bound NRAS wild-type protein vs GDP-bound KRAS wild-type protein
GDP-bound NRAS wild-type protein, sequence (P01111 whole entry): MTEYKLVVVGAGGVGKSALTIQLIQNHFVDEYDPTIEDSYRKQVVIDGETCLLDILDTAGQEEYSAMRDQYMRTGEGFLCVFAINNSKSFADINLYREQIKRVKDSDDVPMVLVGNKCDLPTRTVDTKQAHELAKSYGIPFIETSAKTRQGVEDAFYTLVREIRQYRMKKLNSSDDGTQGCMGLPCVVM

[2] = target: GDP-bound HRAS wild-type protein (Homo sapiens, UniProt P01112); test: Binding to HRAS by surface plasmon resonance (SPR), Single Cycle Kinetics; conditions: SPR, GDP-bound HRAS wild-type protein vs GDP-bound KRAS wild-type protein
GDP-bound HRAS wild-type protein, sequence (P01112 whole entry): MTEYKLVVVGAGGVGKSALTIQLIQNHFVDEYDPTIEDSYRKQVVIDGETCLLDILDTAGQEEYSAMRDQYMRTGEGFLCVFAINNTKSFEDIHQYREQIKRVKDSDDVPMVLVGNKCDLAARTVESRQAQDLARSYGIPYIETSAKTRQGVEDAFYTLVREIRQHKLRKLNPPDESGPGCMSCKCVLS

[3] = target: GDP-bound KRAS wild-type protein (Homo sapiens, UniProt P01116); test: Binding to KRAS by surface plasmon resonance (SPR), Single Cycle Kinetics; conditions: GDP-bound KRAS wild-type protein, read-out: KRAS KD
GDP-bound KRAS wild-type protein, sequence (P01116 whole entry): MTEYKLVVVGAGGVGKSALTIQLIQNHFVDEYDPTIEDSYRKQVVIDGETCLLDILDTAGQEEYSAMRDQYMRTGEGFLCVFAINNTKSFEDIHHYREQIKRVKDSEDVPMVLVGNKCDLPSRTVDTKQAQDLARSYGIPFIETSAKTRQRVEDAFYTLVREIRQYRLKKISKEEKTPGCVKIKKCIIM

[4] = SPR Single Cycle Kinetics, 1:1 binding model
[5] = SPR, Single Cycle Kinetics, 1:1 binding model

SMILES	NRAS/KRAS (ratio of KD value for NRAS to KD value for KRAS) [1]	HRAS/KRAS (ratio of KD value for HRAS to KD value for KRAS) [2]	Kd [3, 4]	NRAS/KRAS (ratio of KD value with respect to NRAS to KD value with respect to KRAS) [1]	HRAS/KRAS (ratio of KD value with respect to HRAS to KD value with respect to KRAS) [2]	further results
CCCN1C(=O)[C@@H]2CCN2C(=O)[C@H](C)N(C)C(=O)[C@H]([C@@H](C)CC)NC(=O)[C@H](CC(C)C)N(C)C(=O)C[C@@H](C(=O)N2CCOCC2)NC(=O)[C@H](C2CCCC2)N(C)C(=O)C2(CCC2)NC(=O)[C@@H]2C[C@@H](OCC)CN2C(=O)[C@H](CCc2ccc(C(F)(F)F)c(Cl)c2)NC(=O)CN(C)C(=O)[C@@H]1Cc1ccc(C(F)(F)F)cc1 [PP0348] ([NMeL]I[NMeA][Aze][NPrPhe(4-CF3)][Sar][hPhe(3-Cl-4-CF3)][Hyp](Et)[Ac4c][NMeGly(cPent)]D-Morpholide; lactam N-11)	C (A compound having a KD ratio of 0.1 or more and less than 3 is denoted as C)	B (a compound having 3 or more and less than 10 is denoted as B)	0.38 nM			
CCC[C@H]1C(=O)N[C@@H]([C@@H](C)CC)C(=O)N(C)CC(=O)N(C)[C@H]2CCCCN(C2=O)[C@@H](Cc2ccc(C(F)(F)F)cc2)C(=O)N(C)CC(=O)N[C@@H](CCc2cc(F)c(C(F)(F)F)c(F)c2)C(=O)N2C[C@H](OCC)C[C@H]2C(=O)NC2(CCC2)C(=O)N(C)[C@@H](C2CCCC2)C(=O)N(C)[C@H](C(=O)N2CCOCC2)CC(=O)N1C [PP0709]			0.03 nM	C (A compound having a KD ratio of 0.1 or more and less than 3 is denoted as C)	B (a compound having 3 or more and less than 10 is denoted as B)	
CCO[C@@H]1C[C@H]2C(=O)NC3(CCC3)C(=O)N(C)[C@@H](C3CCCC3)C(=O)N(C)[C@H](C(=O)N3CCOCC3)CC(=O)N(C)[C@@H](CC)C(=O)N[C@@H]([C@@H](C)CC)C(=O)N(C)CC(=O)N(C)[C@H]3CC/C=C(/C)CN(C3=O)[C@@H](Cc3ccc(C(F)(F)F)cc3)C(=O)N(C)CC(=O)N[C@@H](CCc3cc(F)c(C(F)(F)F)c(F)c3)C(=O)N2C1 [PP1335]						NRAS/KRAS (ratio of KD value for NRAS to KD value for KRAS) ([1]; KD ratio class): B (a compound having 3 or more and less than 10 is denoted as B); HRAS/KRAS (ratio of KD value for HRAS to KD value for KRAS) ([2]; KD ratio class): B (a compound having 3 or more and less than 10 is denoted as B); Kd [3, 5]: 18 nM
CCO[C@@H]1C[C@H]2C(=O)NC3(CCC3)C(=O)N(C)[C@@H](C3CCCC3)C(=O)N(C)[C@H](C(=O)N3CCOCC3)CC(=O)N(C)[C@@H](COC)C(=O)N[C@@H]([C@@H](C)CC)C(=O)N(C)CC(=O)N(C)[C@H]3CCCCCN(C3=O)[C@@H](Cc3ccc(C(F)(F)F)cc3)C(=O)N(C)CC(=O)N[C@@H](CCc3ccc(C(F)(F)F)c(F)c3)C(=O)N2C1 [PP0848]	B (a compound having 3 or more and less than 10 is denoted as B)	B (a compound having 3 or more and less than 10 is denoted as B)				Kd ([3]; SPR, Single Cycle Kinetics): 0.57 nM
CC[C@H](C)[C@@H]1NC(=O)[C@H](CC(C)C)N(C)C(=O)C[C@@H](C(=O)N2CCOCC2)N(C)C(=O)[C@H](C2CCCC2)N(C)C(=O)C2(CCCC2)NC(=O)[C@@H]2CCCN2C(=O)[C@H](CCc2ccc(C(F)(F)F)c(Cl)c2)NC(=O)CN(C)C(=O)[C@H](Cc2ccc(Cl)cc2)N2CC=CC[C@@H](C2=O)N(C)C(=O)CN(C)C1=O [PP0533]			0.17 nM	C (A compound having a KD ratio of 0.1 or more and less than 3 is denoted as C)	C (A compound having a KD ratio of 0.1 or more and less than 3 is denoted as C)	
CC[C@H](C)[C@@H]1NC(=O)[C@H](CC(C)C)N(C)C(=O)C[C@@H](C(=O)N2CCOCC2)N(C)C(=O)[C@H](C2CCCC2)N(C)C(=O)C2(CCCC2)NC(=O)[C@@H]2CCCN2C(=O)[C@H](CCc2ccc(C(F)(F)F)c(Cl)c2)NC(=O)CN(C)C(=O)[C@H](Cc2ccc(C(F)(F)F)cc2)N(CCC(C)C)C(=O)CN(C)C(=O)CN(C)C1=O [PP0126] ([NMeL]I[Sar][Sar][X39][Sar][hPhe(3-Cl-4-CF3)]P[Ac5c][NMeGly(cPent)][NMeD]-Morpholide; lactam N-11)	C (A compound having a KD ratio of 0.1 or more and less than 3 is denoted as C)	C (A compound having a KD ratio of 0.1 or more and less than 3 is denoted as C)	0.43 nM			
CC[C@H](C)[C@@H]1NC(=O)[C@H](C)N(C)C(=O)C[C@@H](C(=O)N(C)C)N(C)C(=O)[C@H](C2CCCC2)N(C)C(=O)C2(CCC2)NC(=O)[C@@H]2CCCN2C(=O)[C@H](CCc2cc(F)c(C(F)(F)F)c(F)c2)NC(=O)CN(C)C(=O)[C@H](Cc2ccc(C(F)(F)F)cc2)N2CCCCC[C@@H](C2=O)N(C)C(=O)CN(C)C1=O [PP0470]			0.55 nM	B (a compound having 3 or more and less than 10 is denoted as B)	B (a compound having 3 or more and less than 10 is denoted as B)	
CCO[C@@H]1C[C@H]2C(=O)NC3(CCC3)C(=O)N(C)[C@@H](C3CCCC3)C(=O)N(C)[C@H](C(=O)N(C)CCOC)CC(=O)N(C)[C@@H](CC3CC3)C(=O)N[C@@H]([C@@H](C)CC)C(=O)N(C)CC(=O)N(C)[C@H]3C/C=C\CCN(C3=O)[C@@H](Cc3ccc(C(F)(F)F)cc3)C(=O)N(C)CC(=O)N[C@@H](CCc3cc(F)c(C(F)(F)F)c(F)c3)C(=O)N2C1 [PP1318]						NRAS/KRAS (ratio of KD value for NRAS to KD value for KRAS) ([1]; KD ratio class): A (a compound having 10 or more and less than 20 is denoted as A); HRAS/KRAS (ratio of KD value for HRAS to KD value for KRAS) ([2]; KD ratio class): A (a compound having 10 or more and less than 20 is denoted as A); Kd [3, 5]: 0.091 nM
CC[C@H](C)[C@@H]1NC(=O)[C@H](CC(C)C)N(C)C(=O)C[C@@H](C(=O)N2CCOCC2)N(C)C(=O)[C@H](C2CCCC2)N(C)C(=O)C2(CCCC2)NC(=O)[C@@H]2CCCN2C(=O)[C@H](CCc2ccc(C(F)(F)F)c(Cl)c2)NC(=O)CN(C)C(=O)[C@H](Cc2ccc(C(F)(F)F)cc2)N(C)C(=O)CN(C)C(=O)CN(C)C1=O [PP0076] ([NMeL]I[Sar][Sar][NMePhe(4-CF3)][Sar][hPhe(3-Cl-4-CF3)]P[Ac5c][NMeGly(cPent)][NMeD]-Morpholide; lactam N-11)	C (A compound having a KD ratio of 0.1 or more and less than 3 is denoted as C)	C (A compound having a KD ratio of 0.1 or more and less than 3 is denoted as C)	0.064 nM			
CCO[C@@H]1C[C@H]2C(=O)NC3(CCC3)C(=O)N(C)[C@@H](C3CCCC3)C(=O)N(CCC3CCC3)[C@H](C(=O)N(C)C)CC(=O)N(C)[C@@H](CC)C(=O)N[C@@H]([C@@H](C)CC)C(=O)N(C)CC(=O)N(C)[C@H]3CCCCN(C3=O)[C@@H](Cc3ccc(C(F)(F)F)cc3)C(=O)N(C)CC(=O)N[C@@H](CCc3cc(F)c(C(F)(F)F)c(F)c3)C(=O)N2C1 [PP0645]			0.028 nM	B (a compound having 3 or more and less than 10 is denoted as B)	B (a compound having 3 or more and less than 10 is denoted as B)	
CCCOC[C@H]1C(=O)N[C@@H]([C@@H](C)CC)C(=O)N(C)CC(=O)N(C)[C@H]2C/C=C\CCN(C2=O)[C@@H](Cc2ccc(C)cc2)C(=O)N(C)CC(=O)N[C@@H](CCc2ccc(C(F)(F)F)c(Cl)c2)C(=O)N2C[C@H](C)C[C@H]2C(=O)NC2(CC(C)(C)C2)C(=O)N(C)[C@@H](C2CCCC2)C(=O)N(C)[C@H](C(=O)N(C)C)CC(=O)N1C [PP2234]	A (a compound having 10 or more and less than 20 is denoted as A)	A (a compound having 10 or more and less than 20 is denoted as A)				Kd ([3]; SPR, Single Cycle Kinetics): 0.19 nM
CCO[C@@H]1C[C@H]2C(=O)NC3(CCC3)C(=O)N(C)[C@@H](C(CC)CC)C(=O)N(C)[C@H](C)CC(=O)N(C)[C@@H](CC3CC3)C(=O)N[C@@H]([C@@H](C)CC)C(=O)N(C)CC(=O)N(C)[C@H]3C/C=C\CCN(C3=O)[C@@H](Cc3ccc(F)cc3)C(=O)N(C)CC(=O)N[C@@H](CCc3cc(F)c(C(F)(F)F)c(F)c3)C(=O)N2C1 [PP1521]						NRAS/KRAS (ratio of KD value for NRAS to KD value for KRAS) ([1]; KD ratio class): A (a compound having 10 or more and less than 20 is denoted as A); HRAS/KRAS (ratio of KD value for HRAS to KD value for KRAS) ([2]; KD ratio class): B (a compound having 3 or more and less than 10 is denoted as B); Kd [3, 5]: 2.6 nM
CCO[C@@H]1C[C@H]2C(=O)NC3(CCCC3)C(=O)N(C)[C@@H](C3CCCC3)C(=O)N(C)[C@H](C(=O)N(C)C)CC(=O)N(C)[C@@H](CC(C)C)C(=O)N[C@@H]([C@@H](C)CC)C(=O)N(C)CC(=O)N(C)[C@H]3CC(C)=C(C)CN(C3=O)[C@@H](Cc3ccc(C(F)(F)F)cc3)C(=O)N(C)CC(=O)N[C@@H](CCc3cc(F)c(C(F)(F)F)c(F)c3)C(=O)N2C1 [PP1045]	C (A compound having a KD ratio of 0.1 or more and less than 3 is denoted as C)	C (A compound having a KD ratio of 0.1 or more and less than 3 is denoted as C)				Kd ([3]; SPR, Single Cycle Kinetics): 1.7 nM
